Marks after values point to notes of the source that are not given here.
How the values were obtained:
[1] = test system: Total lymphocytes; assay: Lymphocyte blastogenesis test (LBT); format: cell-based, mice; conditions: 100 mg ABA/kg diet
Method: Single cell suspensions were prepared from the spleen by gently crushing the spleens excised during the necropsy procedure between the frosted ends of microscope glass slides previously autoclaved. Tissue debris were removed by settling, erythrocytes were eliminated by hypotonic lysis and cells finally resuspended in complete RPMI (cRPMI, 10% fetal bovine serum (Hyclone, Logan, Utah), 25 mM HEPES buffer (Sigma, St. Louis, Mo.), 100 units/ml penicillin (Sigma), […] streptomycin (Sigma), 1 mM sodium pyruvate (Sigma), 1 mM nonessential aminoacids (Sigma), and 2 mM essential amino acids (Mediatech), and enumerated with a Coulter Z1 Single Particle Counter (Beckman Coulter, Miami, Fla.).
Wells of 96-well, round bottom microtiter plates were seeded with 2×10^5 splenocytes in a total volume of […] per well. Cells were cultured in cRPMI media with or without 2.5 μg/ml of Concanavalin A (Sigma) for 4 days. On day 4, […] of methyl-[^3Thymidine] was added to each well, and cells we incubate for 20 additional hours. Well contents were harvested onto glass fiber filters using cell harvester, and incorporated radioactivity measured by liquid scintillation counting. Samples were run in triplicate for each animal and ex-vivo treatment. Stimulation indices were calculated by dividing counts per minute of mitogen-stimulated wells by counts per minute of unstimulated wells.

[2] = test system: db/db mice; assay: Fasting blood glucose in db/db mice fed high-fat diets for 36 days; format: in vivo; conditions: day 36
Method: Four week-old, male BKS.Cg-+Lepr^db/+Lepr^db/OlaHsd (db/db) mice were purchased from Harlan Laboratories (Indianapolis, Ind.) and maintained at the animal facilities at Virginia Polytechnic Institute and State University in a room maintained at 75° F., with a 12:12 h light-dark cycle starting from 6:00 AM. All experimental procedures were approved by the Institutional Animal Care and Use Committee of Virginia Polytechnic Institute and State University and met or exceeded requirements of the Public Health Service/National Institutes of Health and the Animal Welfare Act.
Experiment 1: mice (n=25) were fed high-fat (>40% energy from fat), isocaloric, isonitrogenous diets containing 0, 100, 200, 400, and 800 mg of a racemic (±) ABA mixture/kg diet for 36 days (Table 1) (Sigma). These doses were chosen based on the standard concentrations of TZDs utilized in the treatment of NIDDM. The mice were weighed and their food intake was recorded daily. On day 36 of the study fasted mice (12 h) were bled through the caudal vein and fasting blood glucose concentrations were determined. To investigate the ability of ABA to normalize glucose concentrations, an intraperitoneal glucose tolerance test (IPGTT) was performed on day 36 on the fasted mice. Briefly, mice were bled at 0, 10, 25, and 45 minutes following the administration of glucose (2 g/kg) for measurement of plasma glucose levels. […] Weights were recorded for WAT, interscapular brown adipose tissue (BAT), and liver.
Experiment 2: The ABA dose utilized (100 mg ABA/kg) was based on the results obtained from the IPGTT of the ABA titration study (i.e., Experiment 1). Mice in experiment 2 were fed high-fat diets containing 0 or 100 mg ABA/kg for 36 days. Their body weights and food intake was recorded daily, and blood was collected on day 36 of the study during an IPGTT. This IPGTT included one additional 100 minutes time point. […] Weights were recorded for abdominal WAT, BAT, and liver.
Experiment 1 was a dose-titration study, where we fed 4-week old db/db mice (n=25) diabetogenic, high fat diets containing either 0, 100, 200, 400, or 800 mg racemic ABA mixture/kg diet. […] These in vivo results are in agreement with the transfection findings showing no difference in PPAR γ transactivation between 10 and 50 μM ABA.

CC1=CC(=O)CC(C)(C)C1(O)/C=C/C(C)=C\C(=O)O (racemic) [ABA, abscisic acid]
LBT Total lymphocytes SI [1]: 9.22
fasting blood glucose (FBG) concentrations versus control diet ([2]; 100 to 800 mg ABA/kg diet): significantly lower
Fasting glucose ([2]; Experiment 1, 100 mg ABA/kg diet): 219.6^b mg/dL
Fasting glucose ([2]; Experiment 1, 200 mg ABA/kg diet): 210.2^b mg/dL
Fasting glucose ([2]; Experiment 1, 400 mg ABA/kg diet): 185.6^a mg/dL
Fasting glucose ([2]; Experiment 1, 800 mg ABA/kg diet): 202.0^b mg/dL
Fasting glucose ([2]; Experiment 2, 100 mg ABA/kg diet): 190.7^b mg/dL
